Reference: PubChem BioAssay (NCI)
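Values below derive from 48-hour exposures of cells grown in 96-well plates, with endpoints linearly interpolated between the two concentrations bracketing the appropriate inhibition level. TGI denotes the concentration required for complete inhibition of growth.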

How the values were obtained:
Experiment in all cases: DTP human tumour cell line panel, 48 h
[1] = tested on: 786-0 renal
[2] = tested on: A498 renal
[3] = tested on: A549 NSCLC
[4] = tested on: ACHN renal
[5] = tested on: BT-549 breast
[6] = tested on: CAKI-1 renal
[7] = tested on: CCRF-CEM leukemia
[8] = tested on: COLO 205 colon
[9] = tested on: DU-145 prostate
[10] = tested on: EKVX NSCLC
[11] = tested on: HCC-2998 colon
[12] = tested on: HCT-116 colon
[13] = tested on: HCT-15 colon
[14] = tested on: HOP-62 NSCLC
[15] = tested on: HOP-92 NSCLC
[16] = tested on: HS 578T breast
[17] = tested on: HT29 colon
[18] = tested on: IGROV1 ovarian
[19] = tested on: K-562 leukemia
[20] = tested on: KM12 colon
[21] = tested on: LOX IMVI melanoma
[22] = tested on: M14 melanoma
[23] = tested on: MALME-3M melanoma
[24] = tested on: MCF7 breast
[25] = tested on: MDA-MB-231 breast
[26] = tested on: MDA-MB-435
[27] = tested on: MDA-N
[28] = tested on: MOLT-4 leukemia
[29] = tested on: NCI-H226 lung
[30] = tested on: NCI-H23 lung
[31] = tested on: NCI-H460 lung
[32] = tested on: NCI-H522 lung
[33] = tested on: OVCAR-3 ovarian
[34] = tested on: OVCAR-4 ovarian
[35] = tested on: OVCAR-5 ovarian
[36] = tested on: OVCAR-8 ovarian
[37] = tested on: PC-3 prostate
[38] = tested on: RPMI-8226 leukemia
[39] = tested on: RXF 393 renal
[40] = tested on: SF-268 CNS
[41] = tested on: SF-295 CNS
[42] = tested on: SF-539 CNS
[43] = tested on: SK-MEL-2 melanoma
[44] = tested on: SK-MEL-28 melanoma
[45] = tested on: SK-MEL-5 melanoma
[46] = tested on: SK-OV-3 ovarian
[47] = tested on: SN12C renal
[48] = tested on: SNB-19 CNS
[49] = tested on: SNB-75 CNS
[50] = tested on: SR leukemia
[51] = tested on: SW-620 colon
[52] = tested on: T-47D breast
[53] = tested on: TK-10 renal
[54] = tested on: U251 CNS
[55] = tested on: UACC-257 melanoma
[56] = tested on: UACC-62 melanoma
[57] = tested on: UO-31 renal
[58] = tested on: HL-60(TB) leukemia

With `CSc1ncnc2c1cnn2Cc1cn(CCCCO)nn1` the TGI [1] was > 100 µM, the TGI [2] was > 100 µM and the TGI [3] was > 100 µM. For the same molecule, the TGI [4] was > 100 µM, the TGI [5] was > 100 µM and the TGI [6] was > 100 µM. For the same molecule, the TGI [7] was > 100 µM, the TGI [8] was > 100 µM and the TGI [9] was > 100 µM. The TGI [10] was > 100 µM, the TGI [11] was > 100 µM and the TGI [12] was > 100 µM. For the same molecule, the TGI [13] was > 100 µM, the TGI [14] was > 100 µM and the TGI [15] was > 100 µM. The TGI [16] was > 100 µM, the TGI [17] was > 100 µM and the TGI [18] was > 100 µM. The TGI [19] was > 100 µM, the TGI [20] was > 100 µM and the TGI [21] was > 100 µM. The TGI [22] was > 100 µM, the TGI [23] was > 100 µM and the TGI [24] was > 100 µM. For the same molecule, the TGI [25] was > 100 µM, the TGI [26] was > 100 µM and the TGI [27] was > 100 µM. For the same molecule, the TGI [28] was > 100 µM, the TGI [29] was > 100 µM and the TGI [30] was > 100 µM. The TGI [31] was > 100 µM, the TGI [32] was > 100 µM and the TGI [33] was > 100 µM. The TGI [34] was > 100 µM, the TGI [35] was > 100 µM and the TGI [36] was > 100 µM. For the same molecule, the TGI [37] was > 100 µM, the TGI [38] was > 100 µM and the TGI [39] was > 100 µM. For the same molecule, the TGI [40] was > 100 µM, the TGI [41] was > 100 µM and the TGI [42] was > 100 µM. The TGI [43] was > 100 µM, the TGI [44] was > 100 µM and the TGI [45] was > 100 µM. The TGI [46] was > 100 µM, the TGI [47] was > 100 µM and the TGI [48] was > 100 µM. For the same molecule, the TGI [49] was > 100 µM, the TGI [50] was > 100 µM and the TGI [51] was > 100 µM. The TGI [52] was > 100 µM, the TGI [53] was > 100 µM and the TGI [54] was > 100 µM. For the same molecule, the TGI [55] was > 100 µM, the TGI [56] was > 100 µM and the TGI [57] was > 100 µM.

With `C=C1C(=O)OC2/C=C(/CO)C3(O)CC(O)C(C)(CC(OC(=O)/C(C)=C/C)C12)O3` (stereo not given) the TGI [1] was 52.3 µM, the TGI [2] was 50.2 µM and the TGI [3] was > 74.6 µM. It also gave a TGI [4] of 25 µM, a TGI [5] of 18.3 µM and a TGI [6] of 11.6 µM. For the same molecule, the TGI [7] was > 24.6 µM, the TGI [8] was 14.7 µM and the TGI [9] was 41.4 µM. The TGI [10] was 48.5 µM, the TGI [11] was 29 µM and the TGI [12] was > 44.7 µM. The TGI [13] was 31.6 µM, the TGI [58] was > 23 µM and the TGI [14] was > 100 µM. The TGI [15] was 30.6 µM, the TGI [16] was > 100 µM and the TGI [17] was 25 µM. For the same molecule, the TGI [18] was 43.2 µM, the TGI [19] was > 100 µM and the TGI [20] was 42 µM. For the same molecule, the TGI [21] was 25.9 µM, the TGI [22] was > 58.3 µM and the TGI [23] was 29.8 µM. The TGI [24] was 23.9 µM, the TGI [25] was 34.6 µM and the TGI [26] was > 57.1 µM. For the same molecule, the TGI [27] was > 61 µM, the TGI [28] was 9.95 µM and the TGI [29] was 51.5 µM. The TGI [30] was 42.9 µM, the TGI [31] was 48.9 µM and the TGI [32] was 7.32 µM. For the same molecule, the TGI [33] was > 67.8 µM, the TGI [34] was > 62.9 µM and the TGI [35] was 63.5 µM. It also gave a TGI [36] of 45.2 µM, a TGI [37] of 83.9 µM and a TGI [38] of 7.5 µM. For the same molecule, the TGI [39] was 12.6 µM, the TGI [40] was > 59.9 µM and the TGI [41] was > 73 µM. The TGI [42] was 61.4 µM, the TGI [43] was > 66.1 µM and the TGI [44] was 49.5 µM. For the same molecule, the TGI [45] was 54.6 µM, the TGI [46] was > 61.7 µM and the TGI [47] was 32.9 µM. For the same molecule, the TGI [48] was > 100 µM, the TGI [49] was > 100 µM and the TGI [50] was > 26.1 µM. The TGI [51] was 22.3 µM, the TGI [52] was 39.9 µM and the TGI [53] was 32.1 µM. The TGI [54] was 48.7 µM, the TGI [55] was 39 µM and the TGI [56] was 21 µM. The TGI [57] was > 67.2 µM.
